Test [1] is described as follows: In vivo antitumor activity against Sarcoma 180 at dose 8.0 mg/kg. The test is classed as functional, Mus musculus.
In test [2] the test system is HeLa. Description: In vitro anticellular activity against HeLa S3 cells 1 hr after administration of the compound. The test is classed as functional, cell-based. To be noted: Homo sapiens.
Test [3] in a line: In vivo antitumor activity against Sarcoma 180 at dose 16.0 mg/kg. The test is classed as functional, Mus musculus.
The subject of test [4] is HeLa. Description: In vitro anticellular activity against HeLa S3 cells 72 hr after administration of the compound. It is filed as functional, cell-based. The conditions noted are these: Homo sapiens.
Test [5] relates to Colon 26. Description: In vivo antitumor activity against Colon 26 […] at dose 0.25 mg/kg. The test is classed as functional.
Test [6] in a line: In vivo antitumor activity against Sarcoma 180 at dose 0.5 mg/kg. The test is classed as functional, Mus musculus.
Test [7] is described as follows: In vivo antitumor activity against Sarcoma 180 at dose 1.0 mg/kg. The test is classed as functional, Mus musculus.
For test [8], the system named is Colon 26. As to the kind of experiment: In vivo antitumor activity against Colon 26 […] at dose 0.5 mg/kg. It is filed as functional.
The test system of test [9] is Colon 26. As to the kind of experiment: In vivo antitumor activity against Colon 26 […] at dose 1.0 mg/kg. It is filed as functional.
Test [10] can be described thus: In vivo antitumor activity against Sarcoma 180 at dose 2.0 mg/kg. The test is classed as functional, Mus musculus.
Test [11] has as its system Colon 26. Description: In vivo antitumor activity against Colon 26 […] at dose 2.0 mg/kg. It is filed as functional.

As a reminder, the IC50 is the concentration that inhibits the measured activity by half. Low readings indicate higher potency, high ones lower potency.

`COC(=O)[C@]1(C)Nc2c(O[C@@H]3OC(CO)[C@@H](O)C(O)[C@@H]3O)cc3c(c2C1=O)C[C@H](Br)CN3C(=O)c1cc2cc(OC)c(OC)c(OC)c2[nH]1` (stereo partly drawn): the T/C in test [1] is given as 0.55; in test [3], 0.38. Moreover, the IC50 amounted to 2000 nM in the test with HeLa [2] and 830 nM in the test on HeLa [4].

Regarding `COC(=O)[C@]1(C)Nc2c(OC(=O)N3CCN(C)CC3)cc3c(c2C1=O)[C@H](CBr)CN3C(=O)c1cc2cc(OC)c(OC)c(OC)c2[nH]1.Cl`, the IC50 was determined as 170 nM in the test with HeLa [2] and 15 nM in the test with HeLa [4]. In addition, the T/C with Colon 26 [5] amounted to 0.37; in test [6], 0.26; in [7], 0.13; with Colon 26 [8], 0.13.

`COC(=O)[C@]1(C)Nc2c(OC(=O)N3CCN(C)CC3)cc3c(c2C1=O)C[C@H](Br)CN3C(=O)c1cc2cc(OC)c(OC)c(OC)c2[nH]1.Cl`: the IC50 came out at 2000 nM in the test on HeLa [2] and 70 nM in the test with HeLa [4]. In addition, the T/C is 0.23 in the test on Colon 26 [9], 0.083 in [10], 0.19 in test [7] and 0.045 in the test on Colon 26 [11].

Regarding `COC(=O)[C@]1(C)Nc2c(O)cc3c(c2C1=O)C[C@H](Br)CN3C(=O)c1cc2cc(OC)c(OC)c(OC)c2[nH]1`, the figures for the IC50 with HeLa [2] and in the test with HeLa [4] were 0.13 nM and 0.038 nM, respectively. For the same compound, the T/C in test [6] is 0.22.

For the compound `COC(=O)[C@]1(C)Nc2c(OP(=O)(O)O)cc3c(c2C1=O)C[C@H](Br)CN3C(=O)c1cc2cc(OC)c(OC)c(OC)c2[nH]1`, the IC50 with HeLa [2] came out at 40 nM; in the test on HeLa [4] it was 3.2 nM. For the same compound, the T/C worked out at 0.57 in test [6] and 0.29 in test [7].

For the origin of these results see ChEMBL document CHEMBL1131852, “Synthesis and antitumor activity of water-soluble duocarmycin B1 prodrugs” (Bioorg Med Chem Lett, 1999).
